# Reference: patent US20040005652A1 (priority 2002, published 2004)
# Legend:
# B. thuringiensis = conditions: cited from earlier work
# B. anthrasis = conditions: cited from earlier work
# B. cereus = conditions: cited from earlier work
# [1] = tested on: Bacillus anthrasis AMES-RIID and ANR-1; assay type: cell-based
# [2] = tested on: Bacillus cereus ATCC 14579; assay type: cell-based
# [3] = tested on: Bacillus thuringiensis ATCC 10792; assay type: cell-based
Compound,"colony colour, B. thuringiensis (B. thuringiensis)","colony colour, B. anthrasis (B. anthrasis)","colony colour, B. cereus (B. cereus)",Bacillus anthrasis AMES-RIID and ANR-1 Colonial Morphologies 48 hours [1],Bacillus cereus ATCC 14579 Colonial Morphologies 48 hours [2],Bacillus thuringiensis ATCC 10792 Colonial Morphologies 48 hours [3]
O=P(O)(Oc1c[nH]c2ccc(Br)c(Cl)c12)OC1C(O)C(O)C(O)C(O)C1O (stereo not drawn) [5-bromo-4-chloro-3-indoxyl-myo-inositol-1-phosphate],turquoise colonies,white colonies,turquoise colonies,,,
Manganese chloride,,,,cream color colony with a blue dot in the center,turquoise colonies with a narrow rim,turquoise colonies with a narrow rim
